Experimental data reported in PMC9595134, “Novel pituitary actions of GnRH in teleost: The link between reproduction and feeding regulation” (Frontiers in Endocrinology, 2022).
Where a SMILES comes first, the peptide text is derived from it. [ ]: non-standard residue; d: D form. pGlu = O=C1CC[C@@H](C(=O)O)N1

Key:
[1] = test system: grass carp pituitary cells; test: qRT-PCR of anorectic genes in pituitary cells; assay type: cell-based, grass carp (Ctenopharyngodon idellus)
Description: (§1) The preparation of grass carp pituitary cells was performed as mentioned above. After drug treatment, the total RNA of these cells was isolated by TRIzol reagent and reverse transcribed into cDNA with Hifair™ III 1st Strand cDNA Synthesis Kit. The transcript levels of several anorectic peptides (POMCb, CART2, UTS1, NMBa, NMBb, and Lepr) and reproductive genes (GtHα, LHβ, FSHβ, INHBa, SgII, DRD2) were detected by using an ABI 7500 quantitative real-time PCR (qRT-PCR) system (Biosystems, USA) (information of primers for target genes is listed in Supplementary Table S3 ). In this process, a serial gradient dilution of plasmid DNA of these genes was used as a standard for data calibration. The conditions of qRT-PCR were set to 10 min, 95°C, for pre-degeneration; 15 s, 95°C, for degeneration; 30 s, 55°C–60°C, for annealing; 30 s, 72°C, for extending; and 20 s, 82°C, for signal detection with 40 cycles. Finally, the melt curve obtained through each test was used to verify and check the reliability and specificity of the corresponding qRT-PCR.
(§2) The transcript level was detected using qRT-PCR by ABI 7500 software, while the data calibration of each reaction was performed through standard curves with the dynamic range of 10^5 and correlation coefficient >0.95. The transcript level of β-actin was used as an internal control, and target gene mRNA expression was normalized and calculated as a percentage of the mean value (as “% Ctrl”). Based on merging four to eight replicates (as mean ± SEM), the data were analyzed with a one-way ANOVA to differentiate the significant differences from other treatment experiments. The SPSS Statistics 26.0 software was used to do a Dunnett’s post-hoc test. […] The different letters represent a significant difference at p < 0.05 between groups.
To further verify the functional role of GnRH2 and GnRH3 on feeding regulation, time- and dose-dependent tests were performed to detect the effect of GnRH2 and GnRH3 on anorectic gene (POMCb, CART2, UTS1, NMBa, NMBb, and LEPR) mRNA expression. In the time-course test, the grass carp pituitary cells were incubated by GnRH2 or GnRH3 (1 μM) for 3, 6, 12, and 24 h, respectively. […] In the dose-dependent test, grass carp pituitary cells were incubated by the continuous gradient dilution of GnRH2 or GnRH3 (0.1–1,000 nM) for 24 h.
Figure 9 Regulation of feeding hormone gene mRNA expression by GnRH2 and GnRH3 in grass carp pituitary cells. (A) Time-course experiment of grass carp GnRH2 (1 μM) and GnRH3 (1 μM) on POMCb, CART2, UTS1, NMBa, NMBb, and LEPR mRNA expression in grass carp pituitary cells. (B) Dose dependence of a 24-h treatment with increasing levels of GnRH2 and GnRH3 (0.1–1,000 nM) on POMCb, CART2, UTS1, NMBa, NMBb, and LEPR mRNA expression in grass carp pituitary cells. […]

[2] = test system: goldfish; settings: intracerebroventricular (ICV) injection, ref [39]; cited from earlier work
[3] = test system: goldfish; parameters: method as in PMID 7507838, PMID 8045371; settings: ref [34], [35], cited from earlier work
[4] = test system: zebrafish; settings: intracerebroventricular (ICV) injection, ref [38]; cited from earlier work
[5] = test system: grass carp pituitary cells; test: qRT-PCR of reproductive hormone genes in pituitary cells; assay type: cell-based, grass carp (Ctenopharyngodon idellus)
Description: as §1, §2
To further verify the reproductive function of GnRHs, time- and dose-dependent tests were performed to detect GnRH2- or GnRH3-regulated GtHα, LHβ, FSHβ, INHBa, SgII, and DRD2 mRNA expression in grass carp pituitary cells. […] In the dose-dependent test, a continuous gradient dilution of GnRH2 (0.1–1,000 nM) or GnRH3 (0.1–1,000 nM) was incubated with grass carp pituitary cells for 24 h.
Figure 5 Regulation of reproductive hormone gene mRNA expression by GnRH2 and GnRH3 in grass carp pituitary cells. (A) Time-course experiment of grass carp GnRH2 (1 μM) and GnRH3 (1 μM) on GtHα, LHβ, FSHβ, INHBa, SgII, and DRD2 mRNA expression in grass carp pituitary cells. (B) Dose dependence of a 24-h treatment with increasing levels of GnRH2 and GnRH3 (0.1–1,000 nM) on GtHα, LHβ, FSHβ, INHBa, SgII, and DRD2 mRNA expression in grass carp pituitary cells. After drug treatment, the pituitary cells were extracted to total RNA, reversed transcribed, and used for RT-PCR to detect the target genes’ mRNA expression. […] The different letters represent a significant difference at p < 0.05 between groups (ANOVA followed by a Dunnett test).

[6] = test system: pituitary; settings: teleost; ref [5], [10]; cited from earlier work
Excerpt: Subsequently, GnRH2 had been firstly found in chicken so that this variant was also named as chicken GnRH (cGnRH) ([3]). In addition, the third GnRH variant (GnRH3) was an ubiquitous and unique subtype existing in fish ([3]), which was primitively discovered in salmon so that it was named as salmon GnRH (sGnRH) ([4]). Multiple GnRH variants (two or three forms) are present in all teleosts ([5]), but the receptor selectivity a ...

[7] = 1 μM, time-dependent, Figure 5A

## NC(=O)CNC(=O)[C@@H]1CCCN1C(=O)[C@H](Cc1ccc(O)cc1)NC(=O)[C@H](Cc1c[nH]c2ccccc12)NC(=O)CNC(=O)[C@H](Cc1c[nH]cn1)NC(=O)[C@H](CO)NC(=O)[C@H](Cc1c[nH]c2ccccc12)NC(=O)[C@H](Cc1c[nH]cn1)NC(=O)[C@@H]1CCC(=O)N1 [GnRH2] ([pGlu]HWSHGWYPG-NH2)
[1]; 1 μM, 3, 6, 12, and 24 h, time-dependent, Figure 9A
  effect on POMCb, CART2, UTS1, NMBa, NMBb, and LEPR mRNA expression, time course: significantly induce
[1]; 0.1–1,000 nM, 24 h, dose-dependent, Figure 9B
  effect on POMCb, CART2, UTS1, NMBa, NMBb, and LEPR mRNA expression, dose dependence: significantly induce
[2]
  effect on food intake, goldfish: significantly decrease food intake
[3]; sexually mature, pre-spawning fish
  LH secretion compared to GnRH3: more robust LH secretion
[3]; sexually regressed animals
  LH-releasing activity: no effect
[4]
  effect on food intake, zebrafish: significantly decrease food intake
[5]; [7]
  effect on DRD2 mRNA expression, time course: inhibit
  effect on GtHα, LHβ, FSHβ, INHBa, and SgII mRNA expression, time course: significantly induce
[5]; 0.1–1,000 nM (all treated doses), 24 h, Figure 5B
  effect on DRD2 mRNA expression, dose test: significantly inhibit
[5]; 0.1–1,000 nM, 24 h, dose-dependent, Figure 5B
  effect on GtHα, LHβ, FSHβ, INHBa, and SgII mRNA expression, dose dependence: significantly induce
[6]
  effect on LH and FSH secretion in the pituitary: could stimulate
